Laboratory results as given in patent US8691812B2, “Pesticidal composition and its use” (Sumitomo Chemical Company, Limited, priority 2010, dated 2014).

Tested on: Rhizoctonia solani
Experiment: Soybean seed treatment test in soil contaminated by Rhizoctonia solani (disease control efficacy)
Assay type: in vivo, Rhizoctonia solani on soybean (variety: Natto shoryu)
Details: carboxamide compound alone, 0.2 g/100 kg of seeds; soybean seed application; cultivated 20 days in soil contaminated by Rhizoctonia solani; efficacy vs non-treated plot
Description: A cyclohexanone solution (100microL) containing prescribed amount (weight) of a test compound was applied on seeds of soybean (variety : Natto shoryu) (10 g) by using a rotary apparatus for seed treatment (Seed dresser, manufactured by Hans-Ulrich Hege GmbH).
One day after the application, plastic pot was filled with soil contaminated by Rhizoctonia solani, and the seeds treated with the test compounds were seeded in the soil and cultivated in a glass-greenhouse for 20 days (hereinafter referred to as “treated plot”).
Thereafter, the presence of disease caused by Rhizoctonia solani in the young plants which germinated from each seed was observed and disease severity was calculated according to the following calculation formula (1).
On the other hand, seeds of soybean which were not treated as above were cultivated in the same way as above (hereinafter referred to as “non-treated plot”) and the disease severity in “non-treated plot” was calculated in the same way as the above “treated plot”. On the basis of the above severity of disease in “treated plot” and “non-treated plot”, efficacy in the “treated plot” was evaluated according to the following calculation formula (2).
Calculation formula (1): Disease severity (%)=(number of infected young plants/total number of young plants)×100 […]

SMILES	efficacy (%)
Cc1nn(C)c(C)c1C(=O)Nc1cccc2c1C(C)CC2(C)C (centres unmarked) [carboxamide compound (5)]	21.1%
CC1CC(C)(C)c2cccc(NC(=O)c3cn(C)nc3C(F)F)c21 (centres unmarked) [carboxamide compound (1)]	42.1%
